# Marks after values point to notes of the source that are not given here.
# Experiments:
# Septoria tritici = assay: Test J: wheat leaf blotch, preventive spray on wheat seedlings; type: in vivo
# Excerpt: A dash (-) indicates no test results.
# [1] = system: Erysiphe graminis f. sp. tritici; assay: Test L: wheat powdery mildew, preventive spray on wheat seedlings
# [2] = system: Puccinia recondita f. sp. tritici; assay: Test K: wheat leaf rust, preventive spray on wheat seedlings
# Rhizoctonia oryzae = assay: Test G: turf brown patch, preventive spray on creeping bent grass seedlings
# Description: (the causal agent of turf brown patch) and incubated in a saturated atmosphere at 27° C. for 24 h, and then moved to a growth chamber at 27° C. for 5 days, after which disease ratings were made.
# Phytophthora infestans = assay: whole plant or invertebrate; type: in vivo
# Pythium aphanidermatum = assay: Test A: bluegrass pythium blight, preventive spray on bluegrass seedlings
# [3] = system: Colletotrichum orbiculare; assay: Test B: cucumber Colletotrichum anthracnose, preventive spray on cucumber seedlings
# Botrytis cinerea = assay: Test E: tomato botrytis, preventive spray on tomato seedlings
# Sclerotinia sclerotiorum = assay: Test C: cucumber white mold, preventive spray on cucumber seedlings
# Plasmopara viticola = assay: Test D: grape downy mildew, spray after inoculation of grape seedlings; type: in vivo
# Excerpt: Upon removal, disease ratings were made. […] A dash (-) indicates no test results.
# Septoria nodorum = assay: Test H: wheat glum blotch, preventive spray on wheat seedlings
# Description: (the causal agent of wheat glum blotch) and incubated in a saturated atmosphere at 20° C. for 48 h, and then moved to a growth chamber at 22° C. for 5 days, after which disease ratings were made.
Compound,Test J disease control rating (Septoria tritici; 200 ppm) [%],Test L disease control rating ([1]; 200 ppm) [%],Test K disease control rating ([2]; 200 ppm) [%],Test G disease control rating (Rhizoctonia oryzae; 200 ppm) [%],Test F disease control rating (Phytophthora infestans; 200 ppm) [%],Test A disease control rating (Pythium aphanidermatum; 200 ppm) [%],Test B disease control rating ([3]; 200 ppm) [%],Test E disease control rating (Botrytis cinerea; 200 ppm) [%],Test C disease control rating (Sclerotinia sclerotiorum; 200 ppm) [%],Test D disease control rating (Plasmopara viticola; 200 ppm) [%],Test H disease control rating (Septoria nodorum; 200 ppm) [%],Test J disease control rating (Septoria tritici; 40 ppm (*)),Test L disease control rating ([1]; 40 ppm (*)),Test K disease control rating ([2]; 40 ppm (*)),Test G disease control rating (Rhizoctonia oryzae; 40 ppm (*)),Test F disease control rating (Phytophthora infestans; 40 ppm (*)),Test A disease control rating (Pythium aphanidermatum; 40 ppm (*)),Test B disease control rating ([3]; 40 ppm (*)),Test E disease control rating (Botrytis cinerea; 40 ppm (*)),Test C disease control rating (Sclerotinia sclerotiorum; 40 ppm (*)),further results
CC(C)Cn1c(-c2ccc(F)cc2)c(Cl)nc(-n2cncn2)c1=O [compound 142],100,81,27,0,0,64,16,100,0,4,100,–,–,–,–,–,–,–,–,–,–
CC(C)Cn1c(-c2ccc(F)cc2)c(Cl)nc(-n2cccn2)c1=O [compound 143],100,0,68,47,0,0,0,99,0,12,0,–,–,–,–,–,–,–,–,–,–
CC(C)Cn1c(-c2ccc(C#N)cc2)c(Cl)nc(-n2cncn2)c1=O [compound 144],89,0,0,0,0,0,0,0,0,12,0,–,–,–,–,–,–,–,–,–,–
CC(C)Cn1c(-c2ccc(C#N)cc2)c(Cl)nc(-n2cccn2)c1=O [compound 145],100,0,68,40,0,0,0,99,49,20,0,–,–,–,–,–,–,–,–,–,–
O=c1c(-n2cncn2)nc(Cl)c(-c2c(F)cccc2F)n1-c1ccccc1 [compound 162],100,0,27,47,0,0,9,85,0,8,0,–,–,–,–,–,–,–,–,–,–
CCC(C)Cn1c(-c2ccc(F)cc2Cl)c(Cl)nc(-n2cccn2)c1=O (stereo not drawn) [compound 164],100,100,100,74,0,0,100,100,91,44,100,–,–,–,–,–,–,–,–,–,–
CC(C)Cn1c(-c2ccccc2F)c(Cl)nc(-n2cccn2)c1=O [compound 174],–,–,–,–,–,–,–,–,–,–,–,100* %,98* %,99* %,62* %,0* %,0* %,0* %,100* %,0* %,Test D disease control rating (Plasmopara viticola; 40 ppm (*)): 15* %; Test H disease control rating (Septoria nodorum; 40 ppm (*)): 99* %
CC(C)Cn1c(-c2ccccc2F)c(Cl)nc(-n2cncn2)c1=O [compound 175],98,92,60,91,0,0,0,99,0,12,99,–,–,–,–,–,–,–,–,–,–
COc1ccccc1-c1c(Cl)nc(-n2cccn2)c(=O)n1CC(C)C [compound 176],94,0,0,56,0,0,0,99,0,4,73,–,–,–,–,–,–,–,–,–,–
CC(C)(C)CCn1c(-c2c(F)cccc2F)c(Cl)nc(-n2cccn2)c1=O [compound 182],100,85,85,31,0,0,0,91,0,0,0,–,–,–,–,–,–,–,–,–,–
Cn1c(-c2c(F)cccc2F)c(Cl)nc(-n2cccn2)c1=O [compound 185],–,–,–,–,–,–,–,–,–,–,–,8* %,90* %,0* %,0* %,0* %,0* %,0* %,81* %,0* %,Test D disease control rating (Plasmopara viticola; 40 ppm (*)): 8* %; Test H disease control rating (Septoria nodorum; 40 ppm (*)): 0* %
CSCC(C)n1c(-c2c(F)cccc2F)c(Cl)nc(-n2cccn2)c1=O (stereo not drawn) [compound 198],–,–,–,–,–,–,–,–,–,–,–,0* %,0* %,0* %,0* %,0* %,0* %,0* %,0* %,0* %,Test D disease control rating (Plasmopara viticola; 40 ppm (*)): 8* %; Test H disease control rating (Septoria nodorum; 40 ppm (*)): 0* %
CSCC(C)n1c(-c2c(F)cccc2F)c(Cl)nc(-n2cncn2)c1=O (stereo not drawn) [compound 199],–,–,–,–,–,–,–,–,–,–,–,1* %,0* %,0* %,0* %,0* %,0* %,0* %,0* %,0* %,Test D disease control rating (Plasmopara viticola; 40 ppm (*)): 4* %; Test H disease control rating (Septoria nodorum; 40 ppm (*)): 0* %
CC(CS(C)(=O)=O)n1c(-c2c(F)cccc2F)c(Cl)nc(-n2cccn2)c1=O (stereo not drawn) [compound 200],–,–,–,–,–,–,–,–,–,–,–,9* %,0* %,0* %,0* %,0* %,0* %,0* %,0* %,0* %,Test D disease control rating (Plasmopara viticola; 40 ppm (*)): 8* %; Test H disease control rating (Septoria nodorum; 40 ppm (*)): 0* %
CC(CS(C)(=O)=O)n1c(-c2c(F)cccc2F)c(Cl)nc(-n2cncn2)c1=O (stereo not drawn) [compound 201],–,–,–,–,–,–,–,–,–,–,–,0* %,0* %,0* %,0* %,0* %,0* %,0* %,0* %,0* %,Test D disease control rating (Plasmopara viticola; 40 ppm (*)): 0* %; Test H disease control rating (Septoria nodorum; 40 ppm (*)): 0* %
Cc1cccc(C)c1-c1c(Cl)nc(-n2cccn2)c(=O)n1CC(C)C [compound 202],100,99,100,99,0,45,93,100,0,12,99,–,–,–,–,–,–,–,–,–,–
CC(C)Cn1c(C(C)(C)C)c(Cl)nc(-n2cccn2)c1=O [compound 203],0,0,0,0,0,74,0,0,0,12,0,–,–,–,–,–,–,–,–,–,–
CC(C)Cn1c(C(C)C)c(Cl)nc(-n2cccn2)c1=O [compound 204],90,99,98,95,0,0,0,98,0,12,0,–,–,–,–,–,–,–,–,–,–

# Reference: patent publication US20080194585A1, “Fungicidal Pyrazine Derivatives” (priority 2005, published 2008)
